Assays:
HPK1 protein [1] = target: T1, HPK1 protein (Homo sapiens, UniProt Q92918); experiment: HPK1 protein degradation in human PBMC (western blot); type: cell-based; conditions: 18 h incubation
T1 construct: Frozen human PBMC were purchased from Shanghai OribioTech; host or cells: human PBMC
Procedure: HPK1 protein degradation in human PBMC: Frozen human PBMC were purchased from Shanghai OribioTech and recovered with culture medium (RMPI1640) prior to use. The cells were then incubated with a variety of concentrations of compound. After incubation for 18 h, the cells were collected and lysed. The protein concentration was determined by BCA protein assay kit from Thermo (23227). The HPK1 protein level was determined by western blots, using anti-human HPK1 polyclonal antibody from CST (4472S). Proteins were loaded into each well of the pre-casting gels and subjected to electrophoretic separation by SDS-PAGE. The protein resolved by SDS-PAGE were transferred to PVDF, blocked by 5% skim milk, and probed with anti-human HPK1 antibody or β-actin antibody from CST (3700S), using standard western blotting procedure.
T1 sequence (Q92918 whole entry): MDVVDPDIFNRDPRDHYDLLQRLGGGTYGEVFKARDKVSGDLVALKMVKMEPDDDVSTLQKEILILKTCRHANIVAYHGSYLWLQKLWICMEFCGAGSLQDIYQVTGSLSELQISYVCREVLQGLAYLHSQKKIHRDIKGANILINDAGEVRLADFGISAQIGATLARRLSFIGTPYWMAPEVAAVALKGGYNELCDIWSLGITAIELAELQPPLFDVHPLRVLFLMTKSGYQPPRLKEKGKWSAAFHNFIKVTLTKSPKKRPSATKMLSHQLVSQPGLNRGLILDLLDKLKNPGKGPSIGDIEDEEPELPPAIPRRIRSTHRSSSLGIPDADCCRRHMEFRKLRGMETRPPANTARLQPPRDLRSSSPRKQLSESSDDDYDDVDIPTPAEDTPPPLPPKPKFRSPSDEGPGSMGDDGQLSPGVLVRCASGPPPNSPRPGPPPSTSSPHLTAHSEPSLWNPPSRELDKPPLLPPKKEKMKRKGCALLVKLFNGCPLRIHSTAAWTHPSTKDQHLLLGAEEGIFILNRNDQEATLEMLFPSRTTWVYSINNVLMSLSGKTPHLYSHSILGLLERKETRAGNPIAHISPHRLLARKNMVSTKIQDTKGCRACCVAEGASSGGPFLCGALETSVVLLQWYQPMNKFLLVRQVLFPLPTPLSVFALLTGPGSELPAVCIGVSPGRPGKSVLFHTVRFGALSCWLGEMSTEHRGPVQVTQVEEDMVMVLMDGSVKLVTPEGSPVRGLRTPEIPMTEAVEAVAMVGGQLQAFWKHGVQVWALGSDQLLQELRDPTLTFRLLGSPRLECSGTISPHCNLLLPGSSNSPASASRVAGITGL

HPK1 protein [2] = target: T2, HPK1 protein (Mus musculus, UniProt P70218); experiment: HPK1 protein degradation in mouse pan T cell (western blot); type: cell-based; conditions: 18 h incubation
T2 construct: the CD3+ T cell population was isolated from spleenocytes of mice; endogenous in cells; host or cells: primary mouse splenic CD3+ (pan) T cells
T2 sequence (P70218 1-827): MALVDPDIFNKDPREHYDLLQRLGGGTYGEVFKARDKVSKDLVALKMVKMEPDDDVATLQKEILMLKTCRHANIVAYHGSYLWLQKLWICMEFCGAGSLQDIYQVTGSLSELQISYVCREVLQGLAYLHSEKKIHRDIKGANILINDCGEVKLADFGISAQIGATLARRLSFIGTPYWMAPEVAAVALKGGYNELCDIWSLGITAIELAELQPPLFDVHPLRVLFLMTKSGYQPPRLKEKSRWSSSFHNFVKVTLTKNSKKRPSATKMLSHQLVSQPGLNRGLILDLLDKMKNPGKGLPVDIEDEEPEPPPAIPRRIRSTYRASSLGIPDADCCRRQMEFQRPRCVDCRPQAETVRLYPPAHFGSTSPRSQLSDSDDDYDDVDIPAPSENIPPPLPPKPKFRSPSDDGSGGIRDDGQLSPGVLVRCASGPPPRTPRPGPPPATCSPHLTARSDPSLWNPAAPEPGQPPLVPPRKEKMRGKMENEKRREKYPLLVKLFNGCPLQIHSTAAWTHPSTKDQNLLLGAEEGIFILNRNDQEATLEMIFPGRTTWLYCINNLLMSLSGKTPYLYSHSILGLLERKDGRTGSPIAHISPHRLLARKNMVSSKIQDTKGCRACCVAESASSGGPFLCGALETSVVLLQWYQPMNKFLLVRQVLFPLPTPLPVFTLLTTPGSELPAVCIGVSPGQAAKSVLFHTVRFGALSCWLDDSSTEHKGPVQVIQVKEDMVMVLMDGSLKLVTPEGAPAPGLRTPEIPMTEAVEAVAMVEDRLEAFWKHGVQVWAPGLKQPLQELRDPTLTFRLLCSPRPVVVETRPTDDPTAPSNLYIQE
Procedure: HPK1 protein degradation in mouse pan T cell: the CD3+ T cell population was isolated from spleenocytes of mice by using Pan T cell isolation kit from Miltenyi Biotec (130-095-130) following manufacture's instruction. The isolated T cells were then incubated with a variety of concentrations of compound. After incubation for 18 h, the cells were collected and lysed. The protein concentration was determined by BCA protein assay kit from Thermo (23227). The HPK1 protein level was determined by western blots, using anti-human HPK1 polyclonal antibody from CST (4472). Proteins were loaded into each well of the pre-casting gels and subjected to electrophoretic separation by SDS-PAGE. The protein resolved by SDS-PAGE were transferred to PVDF, blocked by 5% skim milk and probed with anti-human HPK1 antibody or β-actin antibody from CST (3700S), using following standard western blotting procedure.

HPK1 protein [3] = target: T3, HPK1 protein (Homo sapiens, UniProt Q92918); experiment: HPK1 enzyme inhibition assay (ADP-Glo); type: biochemical; conditions: MBP substrate, ATP, ADP-Glo readout
T3 construct: purchased Signal Chem M23-11G-10
T3 sequence (Q92918 1-346 limits assumed): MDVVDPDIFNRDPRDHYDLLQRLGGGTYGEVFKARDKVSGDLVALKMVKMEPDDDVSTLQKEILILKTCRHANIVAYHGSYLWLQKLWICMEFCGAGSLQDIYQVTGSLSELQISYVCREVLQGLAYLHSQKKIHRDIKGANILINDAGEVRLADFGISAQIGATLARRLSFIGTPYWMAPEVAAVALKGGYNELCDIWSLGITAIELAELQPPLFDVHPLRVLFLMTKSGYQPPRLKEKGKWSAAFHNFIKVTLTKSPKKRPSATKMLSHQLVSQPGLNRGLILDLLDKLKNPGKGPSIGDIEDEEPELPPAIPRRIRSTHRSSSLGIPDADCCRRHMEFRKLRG
Outline: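 Recombinant human HPK1 preincubated with compound 60 min at 25 °C, then reaction with MBP (0.2 ug/ul, 2× stock) and ATP (20 μM, 2× stock) 60 min at 25 °C. ADP formed detected by ADP-Glo after ATP depletion and conversion to ATP; IC50 calculated from signal.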

SMILES | Dmax (HPK1 protein [1]) [%] | Dmax (HPK1 protein [2]) [%] | IC50 (HPK1 protein [3]) [nM]
O=C1CCC(N2C(=O)c3cc(F)c(N4CCC5(CC4)CN(CCN4CCN(c6cccc(-c7cnc8[nH]cc(C9CC9)c8c7Cl)c6)C(=O)C4)C5)cc3C2=O)C(=O)N1 (stereo not shown) [Example 52] | 31 | 95 | 10 to 100
CCc1c[nH]c2ncc(-c3cccc(N4CCN(C(=O)CCN5CCN(c6ccc7c(c6)C(=O)N(C6CCC(=O)NC6=O)C7=O)CC5)CC4=O)c3)c(Cl)c12 (stereo not shown) [Example 21, 5-(4-(3-(4-(3-(4-chloro-3-ethyl-1H-pyrrolo[2,3-b]pyridin-5-yl)phenyl)-3-oxopiperazin-1-yl)-3-oxopropyl)piperazin-1-yl)-2-(2,6-dioxopiperidin-3-yl)isoindoline-1,3-dione] | 60 | – | 10 to 100
O=C1CCC(N2C(=O)c3cc(F)c(N4CCN(CCCN5CCN(c6cccc(-c7cnc8[nH]cc(CC(F)F)c8c7Cl)c6)C(=O)C5)CC4)cc3C2=O)C(=O)N1 (stereo not shown) [Example 41] | 90 | 95 | 10 to 100
CCc1c[nH]c2ncc(-c3cccc(N4CCN(CCOC5CCN(c6cc7c(cc6F)C(=O)N(C6CCC(=O)NC6=O)C7=O)CC5)CC4=O)c3)c(Cl)c12 (stereo not shown) [Example 26] | 86 | 91 | 10 to 100
CCc1c[nH]c2ncc(-c3cccc(N4CCN(CCCN5CC=C(c6ccc7c(N8CCC(=O)NC8=O)nn(C)c7c6)CC5)CC4=O)c3)c(Cl)c12 [Example 74, 1-(6-(1-(3-(4-(3-(4-chloro-3-ethyl-1H-pyrrolo[2,3-b]pyridin-5-yl)phenyl)-3-oxopiperazin-1-yl)propyl)-1,2,3,6-tetrahydropyridin-4-yl)-1-methyl-1H-indazol-3-yl)dihydropyrimidine-2,4 (1H,3H)-dione] | 86 | 91 | ≤ 10
CCc1c[nH]c2ncc(-c3cccc(N4CCN(CCCN5CCN(c6ccc7c(N8CCC(=O)NC8=O)cccc7c6)CC5)CC4=O)c3)c(Cl)c12 [Example 76, 1-(6-(4-(3-(4-(3-(4-chloro-3-ethyl-1H-pyrrolo[2,3-b]pyridin-5-yl)phenyl)-3-oxopiperazin-1-yl)propyl)piperazin-1-yl)naphthalen-1-yl)dihydropyrimidine-2,4 (1H,3H)-dione] | 74 | 95 | 10 to 100
CC(OC1CCN(c2cc3c(cc2F)C(=O)N(C2CCC(=O)NC2=O)C3=O)CC1)C(=O)N1CCN(c2cccc(-c3cnc4[nH]cc(C5CC5)c4c3Cl)c2)C(=O)C1 (stereo not shown) [Example 48] | 57 | 95 | 10 to 100
O=C1CCC(N2C(=O)c3cc(F)c(N4CCN(C5CC(CN6CCN(c7cccc(-c8cnc9[nH]cc(C%10CC%10)c9c8Cl)c7)C(=O)C6)C5)CC4)cc3C2=O)C(=O)N1 (stereo not shown) [Example 51, 5-(4-(3-((4-(3-(4-chloro-3-cyclopropyl-1H-pyrrolo[2,3-b]pyridin-5-yl)phenyl)-3-oxopiperazin-1-yl)methyl)cyclobutyl)piperazin-1-yl)-2-(2,6-dioxopiperidin-3-yl)-6-fluoroisoindoline-1,3-dione] | 96 | 95 | 10 to 100
O=C1CCC(N2C(=O)c3cc(F)c(N4CCN(CCCN5CCN(c6cccc(-c7cnc8[nH]cc(C9CC9)c8c7Cl)n6)C(=O)C5)CC4)cc3C2=O)C(=O)N1 (stereo not shown) [Example 53, 5-(4-(3-(4-(6-(4-chloro-3-cyclopropyl-1H-pyrrolo[2,3-b]pyridin-5-yl)pyridin-2-yl)-3-oxopiperazin-1-yl)propyl)piperazin-1-yl)-2-(2,6-dioxopiperidin-3-yl)-6-fluoroisoindoline-1,3-dione] | 86 | 95 | 10 to 100
CCc1c[nH]c2ncc(-c3cccc(N4CCN(CCC(=O)N5CCN(c6cc7c(cc6F)C(=O)N(C6CCC(=O)NC6=O)C7=O)CC5)CC4=O)c3)c(Cl)c12 (stereo not shown) [Example 30, 5-(4-(3-(4-(3-(4-chloro-3-ethyl-1H-pyrrolo[2,3-b]pyridin-5-yl)phenyl)-3-oxopiperazin-1-yl)propanoyl)piperazin-1-yl)-2-(2,6-dioxopiperidin-3-yl)-6-fluoroisoindoline-1,3-dione] | 61 | 80 | 10 to 100
O=C1CCC(N2C(=O)c3cc(F)c(N4CCC(CCN5CCN(c6cccc(-c7cnc8[nH]cc(CC(F)F)c8c7Cl)c6)C(=O)C5)CC4)cc3C2=O)C(=O)N1 (stereo not shown) [Example 55] | 55 | 95 | 100 to 1000
O=C1CCC(N2Cc3ccc(N4CCC(OCC(=O)N5CCN(c6cccc(-c7cnc8[nH]cc(C9CC9)c8c7Cl)c6)C(=O)C5)CC4)cc3C2=O)C(=O)N1 (stereo not shown) [Example 46] | 51 | 90 | ≤ 10
O=C1CCC(N2C(=O)c3cc(F)c(N4CCC(CCN5CCN(c6cccc(-c7cnc8[nH]cc(C9CC9)c8c7Cl)c6)C(=O)C5)CC4)cc3C2=O)C(=O)N1 (stereo not shown) [Example 45] | 78 | 90 | 10 to 100
CCc1c[nH]c2ncc(-c3cccc(N4CCN(C(=O)CCOC5CCN(c6ccc7c(c6)C(=O)N(C6CCC(=O)NC6=O)C7=O)CC5)CC4=O)c3)c(Cl)c12 (stereo not shown) [Example 32] | 78 | 90 | 10 to 100
CN(CC(=O)N1CCN(c2cccc(-c3cnc4[nH]cc(C5CC5)c4c3Cl)c2)C(=O)C1)C1CCN(c2cc3c(cc2F)C(=O)N(C2CCC(=O)NC2=O)C3=O)CC1 (stereo not shown) [Example 42] | 40 | 95 | 10 to 100
CCc1c[nH]c2ncc(-c3cccc(N4CCN(S(=O)(=O)CCN5CCN(c6ccc7c(c6)C(=O)N(C6CCC(=O)NC6=O)C7=O)CC5)CC4=O)c3)c(Cl)c12 (stereo not shown) [Example 100] | 93 | 90 | 10 to 100
O=C1CCC(N2Cc3cc(C4=CC5CCC(C4)N5CCCN4CCN(c5cccc(-c6cnc7[nH]cc(C8CC8)c7c6Cl)c5)C(=O)C4)ccc3C2=O)C(=O)N1 (stereo not shown) [Example 64, 3-(5-(8-(3-(4-(3-(4-chloro-3-cyclopropyl-1H-pyrrolo[2,3-b]pyridin-5-yl)phenyl)-3-oxopiperazin-1-yl)propyl)-8-azabicyclo[3.2.1]oct-2-en-3-yl)-1-oxoisoindolin-2-yl)piperidine-2,6-dione] | 70 | – | ≤ 10
O=C1CCC(N2C(=O)c3ccc(N4CCC(OCC(=O)N5CCN(c6cccc(-c7cnc8[nH]cc(C9CC9)c8c7Cl)c6)C(=O)C5)CC4)cc3C2=O)C(=O)N1 (stereo not shown) [Example 31] | 98 | 95 | 10 to 100
CCc1c[nH]c2ncc(-c3cc(N4CCN(C(=O)CN(C)C5CCN(c6cc7c(cc6F)C(=O)N(C6CCC(=O)NC6=O)C7=O)CC5)CC4=O)ccc3F)c(Cl)c12 (stereo not shown) [Example 44] | 30 | 50 | 10 to 100
